{"source": "patent US20100272736A1", "about": "“COMBINATION ANTIBIOTIC AND ANTIBODY THERAPY FOR THE TREATMENT OF PSEUDOMONAS AERUGINOSA INFECTION” (priority 2009, published 2010)", "key": {"P. aeruginosa PA103 [1]": {"test_system": "P. aeruginosa PA103", "experiment": "Acute murine airway infection model: survival and body temperature (Mab166 iv, antibiotic ip)", "format": "in vivo, mice", "details": "for survival rate over a 7 day period: antibiotic alone ip Q8H (ciprofloxacin 100 mg/kg, tobramycin 3.3 mg/kg, ceftazidime 1000 mg/kg); for survival (piperacillin experiment): piperacillin/tazobactam 1000 mg/kg ip Q8H, Mab166 300 μg iv, FIG. 7", "method": "Bacterial administration and lung injury measurement in mice. Following anesthesia with avertin (250 mg kg^−1; ip), mice were inoculated with a volume of fifty μl of bacterial working stock (1.5×10^6 CFU), which was instilled into the left lung through the trachea using a 27G gavages needle. Mice were allowed to recover for 15 minutes prior to being returned to their cages. […] Rectal temperature was recorded hourly for the initial 12 hours post bacterial instillation followed by daily measurements for 7 days. Survival time was recorded for each mouse.\nAntibiotics and PcrV antibody administration. […] All antibiotics were administrated intraperitoneally 1 hour after P. aeruginosa instillation. Four doses of each antibiotic were tested in mice to determine the dose needed to produce sub-optimal survival rates (40-60%) in mice infected with 1.5×10^6 PA103 CFU, which is a 3× lethal amount of bacteria.\nStatistics. Kaplan-Meier plots were generated for survival analysis and ANOVA was used to compare lung injury score, bacterial CFU's and MPO activity in various treatment groups at specific time points; P 0.05 was considered significant.\n(§1) The acutely infectious strain P. aeruginosa PA103 was used for this study.\nAnti-PcrV antibody was intravenously injected one hour before P. aeruginosa instillation. Mice were then anesthetized with avertin (250 mg/kg), prior to instillation of 1.5×10^6 CFU PA103 into the trachea. Intraperitoneal piperacillin (1000 mg/kg, Q8H) injection commenced one hour after P. aeruginosa instillation and repeated until mice expired. Piperacillin was administered in combination with tazobactam (a pencillinase inhibitor), which is the standard practice for administration. In this example, “piperacillin” refers to piperacillin in combination with tazobactam."}, "P. aeruginosa PA103 [2]": {"test_system": "P. aeruginosa PA103", "experiment": "Bacterial enumeration (CFU) in lungs, blood and spleen", "format": "in vivo, mice", "method": "Bacterial enumeration. Lungs were removed aseptically from the thoracic cavity, placed in 1 ml of sterile PBS and homogenized. Spleens were aseptically removed and homogenized in 1 ml of PBS and blood was drawn from right ventricle puncture. All samples were serially diluted in sterile PBS and plated on P. aeruginosa isolation agar prior to overnight incubation at 37° C. Plates with cell counts between 30 and 300 were enumerated and mean CFU ml^−1 of triplicate counts was calculated for each sample.\nThese samples were analyzed for bacterial CFU's as described in materials and methods."}, "PA103": {"test_system": "PA103", "experiment": "PA103 antibiotic sensitivity (MicroScan Neg Combo plates, CLSI guidelines)", "format": "cell-based, P. aeruginosa", "details": "conventional antibiotic resistance testing, CLSI interpretation", "source_text": "PA103 antibiotic sensitivity Dade Behring MicroScan Neg Combo plates were used to determine the antibiotic sensitivity of PA103 by conventional antibiotic sensitivity testing according to the manufacturers instructions.\nas §1"}}}
{"molecule": "NC[C@H]1O[C@H](O[C@H]2[C@H](O)[C@@H](O[C@H]3O[C@H](CO)[C@@H](O)[C@H](N)[C@H]3O)[C@H](N)C[C@@H]2N)[C@H](N)C[C@@H]1O", "note": "[tobramycin]", "values": [{"measurement": "survival rate over a 7 day period", "setting": "P. aeruginosa PA103 [1]", "result": 60, "unit": "%"}, {"measurement": "P. aeruginosa CFU's in the blood", "setting": "P. aeruginosa PA103 [2]; 8 and 24 hours post infection", "result": "significant (P=0.01, P=0.0046 respectively) increases"}, {"measurement": "total CFU's in the lungs", "setting": "P. aeruginosa PA103 [2]; 8 and 24 hours post infection, compared to control mice", "result": "significantly lower"}, {"measurement": "bacterial CFU's in the spleen", "setting": "P. aeruginosa PA103 [2]; 24 hours vs 8 hours post infection", "result": "increased significantly"}, {"measurement": "antibiotic susceptibility of PA103", "setting": "PA103", "result": "susceptible"}]}
{"molecule": "CCN1CCN(C(=O)N[C@@H](C(=O)N[C@@H]2C(=O)N3[C@@H]2SC(C)(C)[C@@H]3C(=O)O)c2ccccc2)C(=O)C1=O", "note": "[piperacillin]", "values": [{"measurement": "survival (piperacillin experiment)", "setting": "P. aeruginosa PA103 [1]", "result": "increased survival minimally"}, {"measurement": "survival (piperacillin experiment)", "setting": "P. aeruginosa PA103 [1]; listed as Piperacillin", "result": "slight increase in animal survival"}]}
{"molecule": "CC(C)(O/N=C(\\C(=O)N[C@@H]1C(=O)N2C(C(=O)[O-])=C(C[n+]3ccccc3)CS[C@H]12)c1csc(N)n1)C(=O)O", "note": "[ceftazidime]", "values": [{"measurement": "survival rate over a 7 day period", "setting": "P. aeruginosa PA103 [1]", "result": 40, "unit": "%"}, {"measurement": "antibiotic susceptibility of PA103", "setting": "PA103", "result": "susceptible"}]}
